Reference: PubChem BioAssay (NCI)
Where “and” joins values, the source holds several entries; their conditions need not be identical. Equal entries are not always repeated.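 Dose response: 5 concentrations. Exposure: 48 h. Format: 96-well plates. Endpoint: linear interpolation; highest concentration if not reached. GI50: concentration for 50% inhibition of growth. TGI marks complete inhibition of growth.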 Where a SMILES comes first, the peptide text is derived from it. [ ]: non-standard residue; d: D form. The star is where a group is joined. ξ: configuration not given here. ξPhe(4-NO2) = NC(Cc1ccc([N+](=O)[O-])cc1)C(=O)O; Boc = CC(C)(C)OC(=O)*; OBn = c1ccc(CO*)cc1

Key:
Assay in all cases: NCI anticancer screen, dose series, 48 h
786-0 renal = system: 786-0 renal
ACHN renal = system: ACHN renal
COLO 205 colon = system: COLO 205 colon
EKVX NSCLC = system: EKVX NSCLC
HCC-2998 colon = system: HCC-2998 colon
HCT-15 colon = system: HCT-15 colon
HOP-92 NSCLC = system: HOP-92 NSCLC
HS 578T breast = system: HS 578T breast
MALME-3M melanoma = system: MALME-3M melanoma
MDA-MB-231 breast = system: MDA-MB-231 breast
OVCAR-3 ovarian = system: OVCAR-3 ovarian
SF-539 CNS = system: SF-539 CNS
U251 CNS = system: U251 CNS
SK-MEL-28 melanoma = system: SK-MEL-28 melanoma

Structure (SMILES)	TGI (786-0 renal)	TGI (ACHN renal)	TGI (COLO 205 colon)	TGI (EKVX NSCLC)	TGI (HCC-2998 colon)	TGI (HCT-15 colon)	TGI (HOP-92 NSCLC)	TGI (HS 578T breast)	TGI (MALME-3M melanoma)	TGI (MDA-MB-231 breast)	TGI (OVCAR-3 ovarian)	TGI (SF-539 CNS)	TGI (U251 CNS)	TGI (SK-MEL-28 melanoma)	GI50 (ACHN renal) [µM]	GI50 (EKVX NSCLC)	GI50 (HCT-15 colon) [µM]	GI50 (HOP-92 NSCLC)	GI50 (MDA-MB-231 breast) [µM]	GI50 (OVCAR-3 ovarian) [µM]
CC(=N/NC(=S)Nc1c(C)n(C)n(-c2ccccc2)c1=O)/C(C)=N\NC(=S)Nc1c(C)n(C)n(-c2ccccc2)c1=O	> 100 µM	> 100 µM	> 100 µM	> 100 µM	> 100 µM	> 100 µM	> 100 µM	> 100 µM	> 100 µM	> 100 µM	> 100 µM	> 100 µM	> 100 µM	–	–	–	–	–	–	–
CC1=CCC[C@@](C)(O)[C@@H]2C[C@H]3C(CSc4ccccc4)C(=O)O[C@H]3[C@@H](O2)[C@H](C)CCC1 (stereo partly drawn)	67.5 µM	25.5 µM	40.4 µM	63.2 µM	30.3 µM	67.9 µM	> 100 µM	56.4 µM	32.1 µM	> 100 µM	26.5 µM	30.9 µM	66.8 µM	52.9 µM	–	–	–	–	–	–
Cc1ccc(S(=O)(=O)NC(=O)NCC(=O)NCC(=O)O)cc1	> 100 µM	> 100 µM	> 100 µM	> 100 µM	> 100 µM	> 100 µM	> 100 µM	> 100 µM	> 100 µM	> 100 µM	> 100 µM	> 100 µM	> 100 µM	> 100 µM	–	–	–	–	–	–
CC(C)(C)OC(=O)NC(Cc1ccc([N+](=O)[O-])cc1)C(=O)NCC(=O)OCc1ccccc1 (stereo not drawn) (Boc-[ξPhe(4-NO2)]-Gly-OBn)	33.8 µM	48.4 µM	32.3 µM	> 100 µM	42 µM	41.9 µM	65.9 µM	54 µM	61.9 µM	80.3 µM	50.5 µM	–	40.6 µM	47.3 µM	–	–	–	–	–	–
COc1ccc(C2SC(N)=Nc3c2c(C)nn3C(=O)c2ccc(Cl)cc2)cc1 (stereo not drawn)	> 10 µM	> 10 µM	> 10 µM	> 10 µM	> 10 µM	> 10 µM	> 10 µM	> 10 µM	> 10 µM	> 10 µM	> 10 µM	> 10 µM	> 10 µM	> 10 µM	–	–	–	–	–	–
COc1ccc(OC)c(NC(=O)C(=O)Nn2c(=S)[nH]c3ccccc3c2=O)c1	> 100 µM	> 100 µM	–	> 100 µM	> 100 µM	> 100 µM	> 100 µM	> 100 µM	> 100 µM	> 100 µM	> 100 µM	> 100 µM	> 100 µM	> 100 µM	–	–	–	–	–	–
COc1cc(C)cc2c1C(=O)C(Br)=CC2=O	8.16 µM	6.96 µM	3.23 µM	33.4 µM	35 µM	40.6 µM	5.41 µM	71.5 µM	4.73 µM	30.2 µM	11.7 µM	28.5 µM	37.4 µM	33.3 µM	–	–	–	–	–	–
CC(=O)OCC1OC(n2c3c(c(-c4ccc(Cl)cc4)c(C#N)c2=S)C(=O)CC(C)(C)C3)C(OC(C)=O)C(OC(C)=O)C1OC(C)=O (stereo not drawn)	> 88.7 µM	> 100 µM	> 62.8 µM	–	27.9 µM	53.2 µM	> 100 µM	62.4 µM	> 100 µM	37 µM	> 74 µM	> 68.7 µM	50.3 µM	65.9 µM	–	–	–	–	–	–
Cc1cnc2[nH]c(-c3ccc(F)cc3)cc(=O)c2c1	> 100 µM	> 100 µM	> 52.7 µM	> 100 µM	> 100 µM	> 100 µM	> 100 µM	> 100 µM	> 100 µM	> 100 µM	> 78.3 µM	> 100 µM	> 91.8 µM	> 100 µM	–	–	–	–	–	–
Cc1ccc(S(=O)(=O)[N-]C2C(=O)c3ccccc3C(=O)C2[n+]2cccc(C(N)=O)c2)cc1 (stereo not drawn)	> 100 µM	> 100 µM	59.4 µM	> 100 µM	> 100 µM	> 100 µM	> 100 µM	> 100 µM	–	> 100 µM	> 100 µM	> 100 µM	> 100 µM	> 100 µM	–	–	–	–	–	–
CN(C)CCOC1(Cc2ccc(Cl)cc2Cl)CCC(C(C)(C)C)CC1 (stereo not drawn)	3.33 µM and 2.98 µM	5.28 µM and 4.05 µM	3.28 µM and 3.23 µM	8.25 µM and 9.01 µM	3.37 µM and 3.23 µM	3.44 µM and 3.06 µM	3.54 µM and 5.92 µM	5.2 µM and 5.27 µM	4.41 µM and 3.24 µM	8.16 µM and 3.34 µM	3.07 µM and 3.92 µM	14.5 µM and 3.46 µM	2.9 µM and 3.45 µM	3.2 µM and 2.83 µM	1.99	3.04 µM and 4.01 µM	1.57	1.8 µM and 2.12 µM	3.39	2.03
NC(C(F)(F)F)(C(F)(F)F)P(=O)(c1ccccc1)c1ccccc1	> 100 µM	> 100 µM	> 100 µM	> 100 µM	> 100 µM	> 100 µM	> 100 µM	> 100 µM	> 100 µM	> 100 µM	> 100 µM	> 100 µM	> 100 µM	> 100 µM	–	–	–	–	–	–
O=[N+]([O-])/C(Cl)=C(\Nc1ccccc1)C(Cl)=C(Cl)Cl	> 100 µM	> 100 µM	39.5 µM	> 100 µM	94.4 µM	66.6 µM	69.5 µM	69.6 µM	45.9 µM	79.6 µM	40.7 µM	47.4 µM	> 100 µM	> 100 µM	–	–	–	–	–	–
Cc1cn(CC2=NCC(C)(C)CN2)c(=O)[nH]c1=O	> 100 µM	> 100 µM	> 100 µM	> 100 µM	> 100 µM	> 100 µM	> 100 µM	> 100 µM	> 100 µM	> 100 µM	–	–	> 100 µM	> 100 µM	–	–	–	–	–	–
CC(C)C[C@H](NC(=O)CCc1ccccc1)B(O)O	57.5 µM	> 100 µM	75.3 µM	> 100 µM	27 µM	38.1 µM	65.1 µM	29.6 µM	32.9 µM	36.2 µM	17.4 µM	15.4 µM	> 100 µM	32.4 µM	–	–	–	–	–	–
COc1cc2c(cc1OC)C1C(O)C(OC)C=C3CC[N+](C)(C2)C31 (stereo not drawn)	> 100 µM	> 100 µM	> 100 µM	> 100 µM	> 100 µM	> 100 µM	> 100 µM	> 100 µM	> 100 µM	> 100 µM	> 100 µM	> 100 µM	> 100 µM	> 100 µM	–	–	–	–	–	–
